# Source: patent EP2329817A1, “Retinoic acid receptor antagonists, miR-10a inhibitors and inhibitors of HOXB1 or HOXB3 repressors for treating pancreatic cancer” (Ernst-Moritz-Arndt-Universität Greifswald, priority 2009, dated 2011)
# Key:
# [1] = test system: xenotransplanted primary human tumours; experiment: Zebrafish embryo xenotransplantation of pretreated fragments of resected primary human tumours; type: in vivo; details: for Migration <5 / Migration 5 to 20 / Migration >20 / total >5 / total >5, final line, number: number of embryos; for total >5, final line, per cent / total >5, final line, number: whole experiment; for presence of micro-metastases at 3dpl, Migration 5 to 20: number in square brackets
# Description: Zebrafish (Danio rerio) (Tuebingen line, AIB strain (Albinos) and Tg (fli1:eGFP) were handled in compliance with local animal care regulations and standard protocols of the Netherlands and Germany. Fish were kept at 28°C in aquaria with day/night light cycles (10 h dark versus 14 h light periods). The developing embryos were kept in an incubator at constant temperatures.
# Cells were stained with CM-Dil (red fluorescence) at a 1:1000 dilution according to the manufacturers protocol (Vybrant, Invitrogen). Cells were suspended in 67% DPBS for injection into embryos. 2dpf zebrafish embryos were dechorionated and tranquilized with tricaine (Sigma). An injection needle (15µm diameter) with a manual injector (Eppendorf; Celltram Vario) was used to inject ∼200 cells into the yolk sac of 2dpf zebrafish embryos. On average 80 embryos were injected for each treatment and embryos with detectable cell scatter 2 h after the transfer (and therefore presumably due to the transfer procedure) were excluded from further analysis. Presence of cells was checked after 2 h incubation at 31°C and embryos were subsequently kept at 35°C. We defined metastasis based on the number of fluorescent cells that were detected outside the yolk sac 2 days after the transfer. Presence of 5 or more cells was considered "metastasised" and percentages of metastasised fish in each experiment were counted. The occurence of micro-metastasis is indicated by cell clusters of ≥4 cells presumably originating from cell division. PaTu-S cells and ASPC1 cells were transfected ON with indicated concentrations of miR-10a siRNA in the presence of ICA-Fectin TM442 (Eurogentec, Belgium). Whole cell lysates were prepared 36h post-transfection and 40 µg of total lysates were separated on 7.5% PAA-gels and blotted with anti E-cadherin, α-catenin, β-catenin (all mAbs, Transduction Labs) and actin antibodies (mAb Sigma-Aldrich, Germany).
# Human resection specimens were obtained at the Universitätsklinikum Greifswald according to local ethical guidelines and after obtaining informed patient consent. Tumour tissue was cut into small pieces using a scalpel blade. Tissue fragments were then washed with 67% DPBS and stained with 1:500 CM-Dil. Stained tissue fragments of approximal ^1/5 to ½ the size of the yolk sac were transferred with a glass transplantation needle into the yolk. After 2 h at 31 °C the embryos were checked that the yolk had sealed itself and the embryos were incubated at 35°C for the remainder of the experiment.
# Small tissue fragments from two well differentiated ductal adenocarcinoma resection specimen of the Pancreas head (2 and 3) were incubated with miR-10a Morpholino or RARα inhibitor and, following staining with carbocyanine dye (CM-Dil), transplanted into zebrafish embryos (Controls: DMSO and control-Morpholino). Formation of micrometastases in the fish was assessed at 3 dpi by analysis of present cell aggregates (including daughter cells) outside the yolk sac. […] Tumour grading and classification was done according to histopathological examination.
# PaTu-T cells = experiment: In vitro migration assay (scratch assay); type: cell-based, human; details: compared to DMSO control
# Description: We used the selective RARα antagonist Ro-41-5253; to analyze its anti-migratory activity in an in vitro migration assay ("scratch assay") and in the zebrafish xenotransplantation model, respectively. […] Similar results were obtained when PaTu-T cells were treated with RAR -specific siRNAs (Supplemental Table 1 and Supplemental Fig. 1).
# PaTu-T cells were incubated as indicated, with DMSO (Co), 200 nM Ro-41-5253 (RARα inh), control-Morpholino, miR-10a Morpholino, miR-196 siRNA (Co), or RARα siRNA and PaTu-S cells were co-incubated with 1 µM retinoic acid (RA) and control siRNA, RARα siRNA or Ro-415253 and miR-10a expression was evaluated by Northern blot analysis (A). […] RT-PCR control of GAPDH was used as a loading control (not shown). Dose response curves for RA and the RARα antagonist and the RT-PCR control for RARα siRNA treatment are shown in Supplemental Fig. 1. The effect of Ro-415253 on cell migration was analysed in an in vitro migration assay in PaTu-T cells. […] An actin re-blot confirmed equal loading.
smiles,measurement,setting,value
"CCCCCCCOc1cc2c(cc1/C(C)=C/c1ccc(C(=O)O)cc1)C(C)(C)CCS2(=O)=O [Ro-41-5253, Benzoic acid, 4-(2-(7-(heptyloxy)-3,4-dihydro-4,4-dimethyl-2H-1-benzothiopyran-6-yl)-1-propenyl)-, S,S-dioxide, (E)]",Migration <5,"[1]; Patient 1 (adenocarcinoma of the ampulla vateri, G3), Day 1",1
same,Migration 5 to 20,"[1]; Patient 1, Day 1",2
same,Migration >20,"[1]; Patient 1, Day 1",0
same,total >5,"[1]; Patient 1, Day 1",2
same,Migration 5 to 20,"[1]; Patient 1, Day 2",2
same,Migration <5,"[1]; Patient 1, Day 2",0
same,Migration >20,"[1]; Patient 1, Day 2",0
same,total >5,"[1]; Patient 1, Day 2",2
same,Migration 5 to 20,"[1]; Patient 1, Day 3",1
same,Migration <5,"[1]; Patient 1, Day 3",0
same,Migration >20,"[1]; Patient 1, Day 3",0
same,total >5,"[1]; Patient 1, Day 3",2
same,"total >5, final line, per cent",[1]; Patient 1,3.1%
same,"total >5, final line, number",[1]; Patient 1,2
same,Migration <5,"[1]; Patient 2 (well-differentiated adenocarcinoma of the pancreas, G2), Day 1",1
same,Migration 5 to 20,"[1]; Patient 2, Day 1",3
same,Migration >20,"[1]; Patient 2, Day 1",0
same,total >5,"[1]; Patient 2, Day 1",3
same,Migration 5 to 20,"[1]; Patient 2, Day 2",2
same,Migration <5,"[1]; Patient 2, Day 2",1
same,Migration >20,"[1]; Patient 2, Day 2",0
same,total >5,"[1]; Patient 2, Day 2",2
same,Migration 5 to 20,"[1]; Patient 2, Day 3",1
same,Migration <5,"[1]; Patient 2, Day 3",0
same,Migration >20,"[1]; Patient 2, Day 3",0
same,total >5,"[1]; Patient 2, Day 3",1
same,"total >5, final line, per cent",[1]; Patient 2,4.3%
same,"total >5, final line, number",[1]; Patient 2,3
same,Migration <5,"[1]; Patient 3 (well-differentiated adenocarcinoma of the pancreas, G2), Day 1",0
same,Migration 5 to 20,"[1]; Patient 3, Day 1",3
same,Migration >20,"[1]; Patient 3, Day 1",0
same,total >5,"[1]; Patient 3, Day 1",3
same,Migration 5 to 20,"[1]; Patient 3, Day 2",3
same,Migration <5,"[1]; Patient 3, Day 2",0
same,Migration >20,"[1]; Patient 3, Day 2",0
same,total >5,"[1]; Patient 3, Day 2",3
same,Migration 5 to 20,"[1]; Patient 3, Day 3",3
same,Migration <5,"[1]; Patient 3, Day 3",0
same,Migration >20,"[1]; Patient 3, Day 3",0
same,total >5,"[1]; Patient 3, Day 3",3
same,"total >5, final line, per cent",[1]; Patient 3,4.5%
same,"total >5, final line, number",[1]; Patient 3,3
same,total >5 [%],"[1]; Table 2, Patient 1",3.1%
same,"presence of micro-metastases at 3dpl, Migration 5 to 20","[1]; Table 2, Patient 1",0
same,Migration 5 to 20,"[1]; Table 2, Patient 1",2
same,Migration <5,"[1]; Table 2, Patient 1",0
same,Migration >20,"[1]; Table 2, Patient 1",0
same,total >5 [%],"[1]; Table 2, Patient 2",4.3% 4.4x10^-5
same,"presence of micro-metastases at 3dpl, Migration 5 to 20","[1]; Table 2, Patient 2",0
same,Migration 5 to 20,"[1]; Table 2, Patient 2",3
same,Migration <5,"[1]; Table 2, Patient 2",1
same,Migration >20,"[1]; Table 2, Patient 2",0
same,total >5 [%],"[1]; Table 2, Patient 3",4.5%
same,"presence of micro-metastases at 3dpl, Migration 5 to 20","[1]; Table 2, Patient 3",0
same,Migration 5 to 20,"[1]; Table 2, Patient 3",3
same,Migration <5,"[1]; Table 2, Patient 3",0
same,Migration >20,"[1]; Table 2, Patient 3",0
same,reduction of invasiveness and metastatic behaviour,[1]; compared to the DMSO treated control tissue of the same tumour specimen,> 95%
same,metastatic behavior of treated specimen,"[1]; p< 0.001, student t-test",significant decrease
same,cell migration,PaTu-T cells,significant inhibition
same,cell migration,PaTu-T cells; listed as RARα antagonist,significantly decreased
